The text below walks through data of patent US8846947B2, “Benzimidazoles and related analogs as sirtuin modulators” (GlaxoSmithKline LLC, priority 2008, dated 2014).

The assay concerns the target T1, SIRT1 (Homo sapiens, UniProt Q96EB6).
T1 sequence (Q96EB6 1-747): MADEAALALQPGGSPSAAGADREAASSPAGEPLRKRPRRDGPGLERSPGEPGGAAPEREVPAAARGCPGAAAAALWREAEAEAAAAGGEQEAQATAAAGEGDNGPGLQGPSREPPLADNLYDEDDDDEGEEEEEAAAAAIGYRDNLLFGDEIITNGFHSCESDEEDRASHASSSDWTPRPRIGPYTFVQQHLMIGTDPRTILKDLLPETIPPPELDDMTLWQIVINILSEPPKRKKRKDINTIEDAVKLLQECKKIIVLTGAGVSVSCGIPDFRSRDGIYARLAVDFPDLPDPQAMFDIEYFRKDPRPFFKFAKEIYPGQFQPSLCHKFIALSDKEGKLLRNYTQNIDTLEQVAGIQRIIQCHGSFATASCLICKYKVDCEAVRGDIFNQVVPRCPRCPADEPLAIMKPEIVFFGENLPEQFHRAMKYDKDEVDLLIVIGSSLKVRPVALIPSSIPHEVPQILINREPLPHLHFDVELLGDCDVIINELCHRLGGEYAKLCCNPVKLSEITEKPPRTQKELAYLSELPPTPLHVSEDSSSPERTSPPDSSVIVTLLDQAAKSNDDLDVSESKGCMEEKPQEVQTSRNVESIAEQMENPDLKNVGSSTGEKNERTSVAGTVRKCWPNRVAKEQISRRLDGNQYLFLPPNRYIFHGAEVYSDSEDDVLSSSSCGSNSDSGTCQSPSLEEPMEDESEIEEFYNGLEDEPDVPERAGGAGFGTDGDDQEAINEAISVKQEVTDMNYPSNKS
Description: Mass spectrometry based SIRT1 deacetylase activation assay (acetylated p53-derived peptide substrate). Type of assay: biochemical.

Setting [1] is: 0.5 μM peptide substrate, 120 μM βNAD+, 10 nM SIRT1, 25 min at 25° C.
Setting [2] is: 0.5 μM peptide substrate, 120 μM βNAD+, 10 nM SIRT1, 25 min at 25° C., read-out: EC1.5.
Setting [3] is: 0.5 μM peptide substrate, 120 μM βNAD+, 10 nM SIRT1, 25 minutes at 25° C.

Each structure is given as a SMILES string. Read-outs that look alike come from different tables or passages of the source. Where only a bound is given, the exact number is not on record here.

Turning to `O=C(Nc1ccc(Cl)nc1)c1cccc2[nH]c(-c3cccc(C(F)(F)F)c3)nc12` [Compound 307], the EC1.5 entry is given as “B (EC1.5 1-25 uM)” and the “Fold Act. (percent maximum fold activation)” value was “B (Fold Activation <200%)”.
For `CS(=O)(=O)c1cccc(-c2nc3c(C(=O)Nc4nccs4)cccc3[nH]2)c1` [Compound 402], the “Fold Act. (percent maximum fold activation)” value under setting [1] is recorded as “A (Fold activation >200%)”. Also, the EC1.5 under setting [2] is under 1000 nM.
As for `O=C(Nc1nccs1)c1cc(N2CCOCC2)cc2[nH]c(-c3ccc(F)cc3C(F)F)nc12` [Compound 749], under setting [3], the EC1.5 entry is “A (EC1.5<1.0 uM)” and the “Fold Act. (percent maximum fold activation)” value was “A (Fold activation >200%)”.
In the same order, the values of `O=C(Nc1ccccn1)c1cccc2nc(-c3ccc(N4CCCC4)cc3C(F)F)[nH]c12` [Compound 766] are “B (EC1.5 1-25 uM)” and “A (Fold activation >200%)”.
With `O=C(Nc1ccccn1)c1cc(N2CCOCC2)cc2[nH]c(-c3ccc(F)cc3C(F)F)nc12` [Compound 750], under setting [3], the EC1.5 result is listed as “A (EC1.5<1.0 uM)” and the “Fold Act. (percent maximum fold activation)” value is recorded as “A (Fold activation >200%)”.
As for `O=C(Nc1ccccn1)c1cc(F)cc2nc(-c3ccccc3C(F)F)[nH]c12` [Compound 834], under setting [3], the EC1.5 result is “A (EC1.5<1.0 uM)” and the “Fold Act. (percent maximum fold activation)” value was “A (Fold activation >200%)”.
The corresponding values for `Cc1cnc(NC(=O)c2cccc3[nH]c(-c4ccc(OC[C@H](O)CO)cc4C(F)(F)F)nc23)s1` [Compound 743] are “A (EC1.5<1.0 uM)” and “A (Fold activation >200%)”.
In the same order, the values of `FC(F)(F)c1ccccc1-c1nc2c(NCc3cccnc3)cccc2[nH]1` [Compound 618] are “C (EC1.5 >25 uM)” and “B (Fold Activation <200%)”.
As for `Cc1nc(C)c(-c2nc3c(C(=O)Nc4ccccn4)cccc3[nH]2)s1` [Compound 320], the EC1.5 result is “B (EC1.5 1-25 uM)” and the “Fold Act. (percent maximum fold activation)” value was “A (Fold activation >200%)”.
Consider `O=C(NC1CCOCC1)c1cccc2[nH]c(-c3ccc(F)cc3C(F)(F)F)nc12` [Compound 436], for which the “Fold Act. (percent maximum fold activation)” value under setting [1] is given as “B (Fold Activation <200%)”. In addition, the EC1.5 under setting [2] is 1000 to 25000 nM.
On to `O=C(Nc1cccnn1)c1cncc2[nH]c(-c3ccccc3C(F)(F)F)nc12` [Compound 638], for which, under setting [3], the EC1.5 entry is reported as “A (EC1.5<1.0 uM)” and the “Fold Act. (percent maximum fold activation)” value is “A (Fold activation >200%)”.
The corresponding values for `O=C(Nc1ccccn1)c1cncc2[nH]c(-c3ccc(N4CCCC4)cc3C(F)F)nc12` [Compound 801] are “A (EC1.5<1.0 uM)” and “A (Fold activation >200%)”.
On to `O=C(Nc1cccnc1)c1cccc2[nH]c(-c3ccc(OC4CCNCC4)cc3)nc12` [Compound 536], for which the “Fold Act. (percent maximum fold activation)” value under setting [1] is reported as “A (Fold activation >200%)”. In addition, the EC1.5 under setting [2] was 1000 to 25000 nM.
With `O=C(Nc1ccccn1)c1cncc2[nH]c(-c3cc(F)ccc3C(F)(F)F)nc12` [Compound 654], under setting [3], the EC1.5 result is on record as “B (EC1.5 1-25 uM)” and the “Fold Act. (percent maximum fold activation)” value is given as “A (Fold activation >200%)”.
`O=C(Nc1cccc(OC[C@@H](O)CO)c1)c1cncc2[nH]c(-c3ccc(Cl)cc3C(F)F)nc12` [Compound 716]: under setting [3], the EC1.5 entry is given as “A (EC1.5<1.0 uM)” and the “Fold Act. (percent maximum fold activation)” value is on record as “A (Fold activation >200%)”.
Regarding `O=C(Nc1ccccn1)c1cccc2[nH]c(-c3cc(N4CCOCC4)ccc3C(F)(F)F)nc12` [Compound 449], the “Fold Act. (percent maximum fold activation)” value under setting [1] is listed as “A (Fold activation >200%)”. Also, the EC1.5 under setting [2] is under 1000 nM.
The corresponding values for `O=C(Nc1ccccn1)c1cccc2[nH]c(-c3ccccc3OCCN3CC[C@@H](F)C3)nc12` [Compound 508] are “A (Fold activation >200%)” and 1000 to 25000 nM.
Take `Cc1nc(C)c(-c2nc3c(C(=O)Nc4nccs4)cccc3[nH]2)s1` [Compound 304]: the EC1.5 entry is “A (EC1.5<1.0 uM)” and the “Fold Act. (percent maximum fold activation)” value is listed as “A (Fold activation >200%)”.
In the same order, the values of `Cc1cc(NC(=O)c2cccc3[nH]c(-c4cccc(C(F)(F)F)c4)nc23)sn1` [Compound 306] are “B (EC1.5 1-25 uM)” and “B (Fold Activation <200%)”.
Take `Fc1ccc(C(F)(F)F)c(-c2nc3c(NCc4cccnc4)cccc3[nH]2)c1` [Compound 670]: under setting [3], the EC1.5 result is reported as “C (EC1.5 >25 uM)” and the “Fold Act. (percent maximum fold activation)” value is given as “B (Fold Activation <200%)”.
In the same order, the values of `O=C(Nc1ccccn1)c1cc(N2CCOCC2)cc2[nH]c(-c3ccc(Cl)cc3C(F)(F)F)nc12` [Compound 641] are “A (EC1.5<1.0 uM)” and “A (Fold activation >200%)”.
In the same order, the values of `CC1(C)CN(c2ccc(-c3nc4c(C(=O)Nc5ccccn5)cccc4[nH]3)c(C(F)(F)F)c2)CCO1` [Compound 707] are “A (EC1.5<1.0 uM)” and “A (Fold activation >200%)”.
`O=C(Nc1cccnn1)c1cc(N2CCOCC2)cc2[nH]c(-c3ccccc3C(F)F)nc12` [Compound 737]: under setting [3], the EC1.5 entry is “A (EC1.5<1.0 uM)” and the “Fold Act. (percent maximum fold activation)” value is on record as “A (Fold activation >200%)”.
The corresponding values for `O=C(Nc1cccc(OC[C@H](O)CO)c1)c1cccc2[nH]c(-c3cccc(F)c3)nc12` [Compound 781] are “A (EC1.5<1.0 uM)” and “A (Fold activation >200%)”.
Turning to `Cc1cnc(NC(=O)c2cccc3[nH]c(-c4ccc(N5CC[C@H](F)C5)cc4C(F)F)nc23)s1` [Compound 732], under setting [3], the EC1.5 entry is listed as “A (EC1.5<1.0 uM)” and the “Fold Act. (percent maximum fold activation)” value is given as “A (Fold activation >200%)”.
As for `C[C@@H]1CN(c2ccc(-c3nc4c(C(=O)Nc5ccccn5)cccc4[nH]3)c(C(F)(F)F)c2)C[C@H](C)O1` [Compound 571], under setting [1], the “Fold Act. (percent maximum fold activation)” value is given as “A (Fold activation >200%)”. Also, under setting [2], the EC1.5 is under 1000 nM.
For the compound `Cc1cc(NC(=O)c2cccc3[nH]c(-c4ccc(F)cc4C(F)(F)F)nc23)n(C)n1` [Compound 375], the EC1.5 result is given as “A (EC1.5<1.0 uM)” and the “Fold Act. (percent maximum fold activation)” value is on record as “A (Fold activation >200%)”.
`O=C(Nc1ccccn1)c1cncc2[nH]c(-c3ccc(N4CCOCC4)cc3C(F)F)nc12` [Compound 806]: under setting [3], the EC1.5 entry is “A (EC1.5<1.0 uM)” and the “Fold Act. (percent maximum fold activation)” value is on record as “A (Fold activation >200%)”.
With `O=C(Nc1ccccn1)c1cccc2[nH]c(-c3ccccc3C(F)F)nc12` [Compound 516], the “Fold Act. (percent maximum fold activation)” value under setting [1] is given as “A (Fold activation >200%)”. Also, the EC1.5 under setting [2] is under 1000 nM.
The corresponding values for `O=C(Nc1ccncn1)c1cccc2[nH]c(-c3ccc(N4CCOCC4)cc3C(F)F)nc12` [Compound 593] are “A (Fold activation >200%)” and under 1000 nM.
For the compound `O=C(NC1CCOC1=O)c1cccc2[nH]c(-c3cccc(N4CCOCC4)c3)nc12` (stereo not drawn) [Compound 397], the EC1.5 result is “B (EC1.5 1-25 uM)” and the “Fold Act. (percent maximum fold activation)” value was “A (Fold activation >200%)”.
Consider `O=C(Nc1cccnc1)c1cccc2[nH]c(-c3ccc(N4CCCC4)cc3C(F)F)nc12` [Compound 774], for which, under setting [3], the EC1.5 result was “A (EC1.5<1.0 uM)” and the “Fold Act. (percent maximum fold activation)” value is listed as “A (Fold activation >200%)”.
On to `COc1cc(C(=O)Nc2nccs2)c2nc(-c3ccc(Cl)cc3C(F)(F)F)[nH]c2c1` [Compound 635], for which, under setting [3], the EC1.5 entry was “A (EC1.5<1.0 uM)” and the “Fold Act. (percent maximum fold activation)” value is recorded as “A (Fold activation >200%)”.
Turning to `O=C(Nc1ccccn1)c1cccc2[nH]c(-c3cccc(N4CCOCC4)c3)nc12` [Compound 289], the EC1.5 result is “A (EC1.5<1.0 uM)” and the “Fold Act. (percent maximum fold activation)” value is reported as “A (Fold activation >200%)”.
The corresponding values for `O=C(Nc1nccs1)c1cccc2[nH]c(-c3cccc(OCCN4CCOCC4)c3)nc12` [Compound 347] are “B (EC1.5 1-25 uM)” and “A (Fold activation >200%)”.
As to `O=C(Nc1ccccn1)c1cccc2[nH]c(-c3ccc(N4CCOCC4)cc3C(F)F)nc12` [Compound 553], the “Fold Act. (percent maximum fold activation)” value under setting [1] was “A (Fold activation >200%)”. For the same compound, the EC1.5 under setting [2] was under 1000 nM.
For `O=C(Nc1nccs1)c1cccc2[nH]c(-c3cc(F)cc(F)c3)nc12` [Compound 213], the EC1.5 result is “B (EC1.5 1-25 uM)” and the “Fold Act. (percent maximum fold activation)” value is reported as “A (Fold activation >200%)”.
In the same order, the values of `O=C(Nc1nccs1)c1cccc2[nH]c(-c3ccncc3)nc12` [Compound 237] are “B (EC1.5 1-25 uM)” and “B (Fold Activation <200%)”.
Consider `O=C(Nc1nccs1)c1cccc2[nH]c(-c3ccc4c(c3)OC(F)(F)O4)nc12` [Compound 221], for which the EC1.5 entry is given as “C (EC1.5 >25 uM)” and the “Fold Act. (percent maximum fold activation)” value is “B (Fold Activation <200%)”.
